Results on one compound are retold here after patent publication US20240390404A1, “ANTI-HUMAN NOROVIRUS AGENT” (KEIO UNIVERSITY, priority 2018, published 2024).

Entries after “also recorded” stand apart in the source; their conditions may differ. Bounds are passed on as bounds.

In data set [1] the test system is human norovirus GII. 6 (K2017 strain). Put plainly: Human norovirus proliferation inhibition in 2D organoid after 2fp-fucose treatment, GII.6 strain. Format: cell-based. The conditions noted are these: 3 days treatment before infection, days 3 and 6 after infection. The protocol: Feces of a human norovirus-infected patent contains a large amount of infectious human norovirus. Thus, the feces of a human norovirus-infected patient is suspended in distilled water or the like to a final concentration of about 10%, to thereby prepare a “10% feces suspension.” The 10% feces suspension is about 10-fold diluted with an ENRA medium. The diluted suspension is added to each of the aforementioned wells having the 2D organoid (5 μL/well) and subjected to incubation for about 3 hours, to thereby proliferate human norovirus. As a result of verification, it has been confirmed that human norovirus proliferates to about 100,000 times the initial count through the culture system employing the 2D organoid.
In the Example, there were tested strains of human norovirus obtained from feces of human norovirus infection patients through the aforementioned procedure and stocked before the test. Specifically, three strains belonging to the genetic group 2 (GII) which accounts for 80 to 90% of the infected patients were selected as test targets. The isolated strain lineages included in GII (FIG. 1) were GII. 6 belonging to “Lineage 1,” GII. […]
The effect of 2fp-fucose treatment on proliferation of human norovirus was investigated for each lineage of norovirus. […] 4, and the viral proliferation amount was determined on days 3 and 6 after infection (FIG. 4).

For data set [2], the system named is fucose-modified proteins including HBGA on the surface of 2D organoid. As to the kind of experiment: HBGA / fucose-modified protein expression on the surface of 2D organoid (binding of FITC-labeled UEA-1). In kind it is cell-based, human. The following applies: 2fp-fucose 0, 8, 40, 200, 1,000 μM, 4 continuous days. The protocol:
The 2D organoid was subjected to a 2fp-fucose treatment (0, 8, 40, 200, and 1,000 μM) for 4 continuous days. Reduction of fucose-modified proteins including HBGA formed on the cell surfaces was investigated by checking binding of FITC (phosphor)-labeled UEA-1 (ulex europaeus agglutinin-1).

For data set [3], the system named is 2D organoid derived from intestinal stem cells. Put plainly: Cytotoxicity of 2fp-fucose to 2D organoid (Trypan blue staining). Format: cell-based. The conditions noted are these: 2fp-fucose 3.0 to 1,000 μM, 7 continuous days, versus no treatment (0 μM). The source says:
The 2D organoid derived from intestinal stem cells refers to a 2D organoid for infection and culture of human diarrhea virus (including norovirus) disclosed in Patent Document 2. According to Patent Document 2, the 2D organoid is “obtained by Step 1 in which human intestinal epithelial stem cells, human intestinal epithelial cells, or a tissue including at least one of these cells is subjected to 3-dimensional culturing on the extracellular matrix, to thereby obtain a 3D organoid; and by Step 2 in which the above-obtained 3D organoid is dispersed to prepare single cells; the single cells are subjected to monolayer culturing on an extracellular matrix; and there is obtained a 2D organoid having a single-layer structure of the epithelial cells for forming the human intestinal cavity which include differentiated trophoblastic cells and caliciform cells.” By virtue of the 2D organoid, culturing human norovirus, which was not previously achieved, can be successfully performed.
The aforementioned 3D organoid is degraded by use of, for example, TrypLE™ Express (product of Thermo Fisher SCIENTIFIC), to thereby yield single cells. […]
The 2D organoid was treated with 2fp-fucose (3.0 to 1,000 μM) for 7 continuous days. In each case, the number of dead cells was determined through Trypan blue staining. […]

Data set [4] concerns human norovirus GII. 4 strain or GII. 6 strain. As to the kind of experiment: Effect of treatment with 2fp-fucose or 6a-fucose after differentiation, on infection and reinfection (RNA titer by real-time RT-PCR). In kind it is cell-based. The following applies: fucose analog 200 μM added on day 5, infection on day (5+2), 3 days culturing. The protocol:
(a) The 2D organoid was disseminated to a 96-well plate. After completion of differentiation induction, two fucose analogs (i.e., 2fp-fucose and 6a-fucose) were each added on day 5 to a concentration of 200 μM, to thereby provide addition groups. The results are shown in FIG. 14(a) and FIG. 14(b), respectively. A non-addition group (untreated group) was also provided. Subsequently, the medium was removed from the wells on day (5+2), and the plate was washed. Then, infection with the GII. 4 strain or the GII. 6 strain was performed.
After the infection treatment, the human norovirus remaining in the medium was removed together with the medium, and the plate was washed thrice with a new medium. After washing, the aforementioned active ingredients were each added to the new medium to a concentration of 200 μM (addition groups), and no addition was performed with respect to the untreated (i.e., non-addition) group. Culturing was performed for 3 days. A portion (10 μL) of the medium was sampled from each well, and the samples were centrifuged at 10,000 g for 10 minutes, to thereby remove cell precipitates. The amount of human norovirus genomic RNA in the supernatant (1 μL) was determined through real-time RT-PCR.
In the test system, the effect of the anti-norovirus agent of the present invention provided after human norovirus infection was estimated on the basis of the following study. Specifically, among the fucose analog-treated 2D organoid cells, the living cells on growth day 3 (i.e., most of them were not infected with human norovirus, by virtue of the effect of the fucose analog) were subjected to a secondary infection operation (i.e., reinfection). The effect of the fucose analog on the reinfection was investigated.
In a specific procedure, the addition groups were prepared through the same procedure as employed in (a) above. The primarily infected cells were cultured in the presence of the fucose analog (200 μM) for 3 days, and the medium was removed from each culture system. After completion of washing, the cells were infected again with human norovirus, and then the virus was removed together with the medium. After completion of the next washing, a medium containing the fucose analog (200 μM) (represented by Reinf+2f-fuc or Reinf+6a-fuc), or a fucose analog-free medium (represented by Reinf−2f-fuc or Reinf−6a-fuc) was added thereto, and culturing was performed for further 3 days. Similar to the above case, the amount of human norovirus released to the supernatant was determined as an RNA titer. In the graphs, the two bars on the right side correspond to (Reinf+2f-fuc and Reinf+6a-fuc) or (Reinf−2f-fuc and Reinf−6a-fuc).
A general note: Quantitative PCR measures a nucleic acid by following its amplification.

Take `CC(=O)OC1O[C@@H](C)[C@@H](OC(C)=O)[C@@H](OC(C)=O)[C@@H]1F` (stereo partly drawn) [2fp-fucose, (3S,4R,5R,6S)-3-fluoro-6-methyltetrahydro-2H-pyran-2,4,5-triyl triacetate]: the “concentration of complete viral proliferation inhibition” value in data set [1] was no less than 200 µM. In addition, the “amount of α-link fucose including HBGA on the surface of the 2D organoid (UEA-1 binding)” value in data set [2] is recorded as “decrease in a concentration-dependent manner”. The “cell viability (number of dead cells, Trypan blue staining)” value in data set [3] is “no significant difference was observed in cell viability; also recorded: no effect on cell viability was confirmed”. Also, in data set [4], the “rise in RNA titer (proliferation of human norovirus) in the addition group” value was “no rise in RNA titer” and the “rise in RNA titer of the untreated group with respect to the administration system” value is no less than 10 fold.
